Like-named read-outs stand apart in the source and are kept apart here. Each block holds one molecule with its values, some of them ahead of it.
Columns and labels:
[1] = type: in vivo, human; conditions: for Tmax: median (range); for AUC(0-t): AUC0–23 hours; for AUC(0-inf): AUC0–∞
[2] = system: Bruton's tyrosine kinase (BTK); conditions: cited from earlier work
[3] = fasted state; cited from earlier work
[4] = cited from earlier work
[5] = itraconazole phase (15 mg, unadjusted) vs placebo phase (140 mg)
[6] = itraconazole phase (dose‐adjusted to 140 mg) vs placebo phase
[7] = itraconazole phase vs placebo phase
[8] = itraconazole phase, dose‐adjusted to a 140‐mg dose, geometric mean (geometric CV)
[9] = itraconazole phase, unadjusted, 15‐mg ibrutinib dose, geometric mean (geometric CV)
[10] = placebo phase, 140‐mg ibrutinib dose, geometric mean (geometric CV)
[11] = unadjusted, 15 mg ibrutinib during itraconazole, 140 mg during placebo
[12] = male, human, plasma, oral, 140 mg, placebo phase, 140‐mg ibrutinib dose, geometric mean (geometric CV)
[13] = male, human, plasma, oral, itraconazole phase, dose‐adjusted to a 140‐mg dose, geometric mean (geometric CV)
[14] = male, human, plasma, oral, itraconazole phase, unadjusted, 15‐mg ibrutinib dose, geometric mean (geometric CV)

- AUC0–23 hours geometric mean ratio (90% CI) [1, 5]: 0.10 (0.08, 0.11)
- AUC0–∞ geometric mean ratio (90% CI) [1, 5]: 0.10 (0.09, 0.12)
- Cmax geometric mean ratio (90% CI) [1, 5]: 0.07 (0.06, 0.09)
- AUC0–23 hours geometric mean ratio (90% CI) [1, 6]: 0.91 (0.78, 1.07)
- AUC0–∞ geometric mean ratio (90% CI) [1, 6]: 0.97 (0.82, 1.16)
- Cmax geometric mean ratio (90% CI) [1, 6]: 0.68 (0.59, 0.79)
- t1/2 geometric mean ratio (90% CI) ([1]; itraconazole phase (dose‐adjusted) column vs placebo phase): 1.3 (1.10, 1.46)
- t1/2 ([1]; itraconazole phase (dose‐adjusted) column, geometric mean (geometric CV)): 8.1 (0.28) hour
- PCI‐45227/Ibrutinib AUC0‐∞ ratio, geometric mean ratio (90% CI) [1, 7]: 0.10 (0.08, 0.12)
- t1/2 geometric mean ratio (90% CI) [1, 7]: 1.3 (1.10, 1.46)
- AUC0–23 hours [1, 8]: 214.3 (0.36) ng·hour/mL
- AUC0–∞ [1, 8]: 256.0 (0.42) ng·hour/mL
- Cmax [1, 8]: 21.2 (0.28) ng/mL
- AUC0–23 hours [1, 9]: 23.0 (0.36) ng·hour/mL
- AUC0–∞ [1, 9]: 27.4 (0.42) ng·hour/mL
- t1/2 ([1]; itraconazole phase, 15‐mg ibrutinib dose, geometric mean (geometric CV)): 8.1 (0.28) hour
- Tmax ([1]; itraconazole phase, 15‐mg ibrutinib dose): 3 (1.5–4) hour
- PCI‐45227/Ibrutinib AUC0‐∞ ratio ([1]; itraconazole phase, geometric mean (geometric CV)): 0.34 (0.28)
- PCI‐45227/Ibrutinib AUC0–∞ ratio during itraconazole, relative to control ([1]; itraconazole vs placebo): 10 % of control
- AUC0–23 hours [1, 10]: 235.2 (0.43) ng·hour/mL
- AUC0–∞ [1, 10]: 262.8 (0.45) ng·hour/mL
- t1/2 [1, 10]: 6.4 (0.27) hour
- Tmax ([1]; placebo phase, 140‐mg ibrutinib dose): 3 (1.5–4) hour
- PCI‐45227/Ibrutinib AUC0‐∞ ratio ([1]; placebo phase, geometric mean (geometric CV)): 3.4 (0.57)
- AUC0‐∞ during itraconazole phase relative to placebo phase [1, 11]: 10%
- Cmax during itraconazole phase relative to placebo phase [1, 11]: 7%
Compound: Nc1ncnc2c1c(-c1ccc(Oc3ccccc3)cc1)nn2[C@@H]1CCCN(C(=O)C(O)CO)C1 (stereo partly shown) [PCI‐45227]
- Inhibitory activity toward BTK relative to parent ibrutinib [2]: about 15 times lower

- Cmax ([1]; male, human, plasma, oral): 192 ng/mL
- AUC(0-t) [1, 12]: 74.4 ng·h/mL
- AUC(0-inf) [1, 12]: 76.5 ng·h/mL
- AUC(0-t) [1, 13]: 755 ng·h/mL
- AUC(0-t) [1, 14]: 80.9 ng·h/mL
- AUC(0-inf) [1, 13]: 764 ng·h/mL
- AUC(0-inf) [1, 14]: 81.9 ng·h/mL
- Cmax ([1]; male, human, plasma, po): 20.6 ng/mL
- Cmax ([1]; male, human, plasma, po, 140 mg): 22 ng/mL
Compound: C=CC(=O)N1CCC[C@@H](n2nc(-c3ccc(Oc4ccccc4)cc3)c3c(N)ncnc32)C1 [Ibrutinib, ibrutinib, reference compound]
- Mean oral bioavailability [3]: about 3%
- Enhancement of bioavailability by food [4]: about twofold
- Increase of AUC by ketoconazole ([4]; fasted state, healthy volunteers): 24 fold
- Increase of AUC by grapefruit juice ([4]; fed conditions, healthy adults): 2.2 fold

Reference: PMC7070818 (Clinical and Translational Science, 2019)
